In patent publication US20130116148A1, “LIVER DISEASE MARKER, METHOD AND APPARATUS FOR MEASURING THE SAME, AND METHOD FOR ASSAYING PHARMACEUTICAL PREPARATION” (KEIO UNIVERSITY, priority 2010, published 2013):

What was measured:
glutathione = conditions: mouse, large quantities of APAP, cited from earlier work
[1] = test system: glutathione-biosynthesis pathway; assay: Administration of GCS inhibitor BSO and GCS activator DEM to mice; metabolites in the livers by CE-TOFMS; type: in vivo; conditions: mouse liver
Experimental: Male mice were fasted overnight and anesthetized by an intraperitoneal injection of pentobarbital sodium (60 mg/Kg of body weight). Then, the mice were intraperitoneally injected with BSO, which is aγ-glutamyl cysteine synthase (GCS) inhibitor, and diethylmaleate (DEM), which is an electrophile (GCS activator), both at a dose of 4 mmol/kg of body weight (888 mg of BSO, 688 mg of DEM). The mouse as a healthy subject was intraperitoneally injected with physiological saline. Liver specimens (about 300 mg) were excised from the mice 1 hour after administration (5 times each).
The liver specimens (about 300 mg) excised from the mice were immediately placed in 1 ml of methanol containing an internal standard substance and were homogenized to inactivate an enzyme, thereby stopping enhancement of metabolism. After 500 μl of pure water was added to the mixture, 300 μl of solution was taken out. To this solution, 200 μl of chloroform was added. After thorough stirring, the solution was further centrifuged at 15000 rpm for 15 minutes at 4° C. After allowing to stand, 300 μl of separated water-methanol phase was passed through a 5 kDa molecular weight cutoff filter for centrifugal ultrafiltration to deproteinize it. […]
The method described below was used to confirm that the detected γ-Glu-X peptides and γ-Glu-X-Gly peptides were synthesized in a glutathione-biosynthesis pathway.

[2] = test system: glutathione-biosynthesis pathway; assay: Administration of BSO and DEM to mice; γ-Glu-X and γ-Glu-X-Gly peptides in the murine serum; type: in vivo; conditions: mouse serum, compared to the normal state
Experimental: Male mice were fasted overnight and anesthetized by an intraperitoneal injection of pentobarbital sodium (60 mg/Kg of body weight). Then, the mice were intraperitoneally injected with BSO, which is aγ-glutamyl cysteine synthase (GCS) inhibitor, and diethylmaleate (DEM), which is an electrophile (GCS activator), both at a dose of 4 mmol/kg of body weight (888 mg of BSO, 688 mg of DEM). The mouse as a healthy subject was intraperitoneally injected with physiological saline. Liver specimens (about 300 mg) were excised from the mice 1 hour after administration (5 times each). On the other hand, regarding the substances in the murine serum, γ-Glu-X peptides and γ-Glu-X-Gly peptides that were decreased by administration of BSO and were increased by administration of an electronic substance, DEM, compared to the normal state were only γ-[…]AB and ophthalmic acid (γ-[…]AB-Gly) (FIG. 22). Therefore, it is expected that, in the case of a mouse, only γ-[…]AB and ophthalmic acid are increased in the blood when glutathione is decreased because of the oxidative stress caused by electrophiles or the like.

| Compound | ophthalmic acid (glutathione; in inverse proportion to the glutathione level) | glutathione (glutathione) | amount of glutathione in the livers ([1]; 1 hour after i.p. 4 mmol/kg, compared to the healthy mouse) | γ-Glu-X and γ-Glu-X-Gly peptidic substances in the liver other than γ-Glu-Cys, GSH and γ-Glu-Ser-Gly ([1]; compared to the normal) | γ-Glu-2AB and ophthalmic acid (γ-Glu-2AB-Gly) in the murine serum [2] |
| --- | --- | --- | --- | --- | --- |
| CC(=O)Nc1ccc(O)cc1 [APAP, Acetaminophen] | increased rapidly | decreased | – | – | – |
| CCCCS(=N)(=O)CCC(N)C(=O)O (centres unmarked) [BSO, buthionine sulfoximine] | – | – | decreased rapidly | decreased | decreased |
